Columns and labels:
PARP = PARP (Homo sapiens (Human), UniProt P09874); assay: PARP assay (chemiluminescent PARP assay kit, Trevigen); format: biochemical; conditions: Table 12; for inhibition at 1 µM: read-out: PARP % inhib @ 1 uM; for inhibition at 20 µM: read-out: PARP % inhib @ 20 uM
Description: Modulatory activity of compounds described herein was assessed in vitro in cell-free CK2 assays. Modulatory activity of compounds described herein also are assessed in vitro in cell-free PARP assays. These assays are described hereafter.
PARP assays are conducted using a chemiluminescent PARP assay kit (Trevigen). Briefly, reactions are performed in Histone-coated strip wells, by adding 10 microliters test compound dissolved in 1×PARP Buffer (prepared by mixing 20×PARP buffer diluted with high-purity water) and 15 microliters diluted PARP-HSA enzyme (diluted in 1× PARP buffer, 0.1 unit per well) to 25 microliters PARP cocktail (prepared from 10×PARP cocktail and 10× activated DNA, both 2.5 microliters per well and 20 microliters per well of 1×PARP buffer). The reactions are incubated at ambient temperature for 60 minutes, then the liquid was removed. After washing the wells four times with PBS (200 ul), 50 microliters of STREP-HRP (Horseradish Peroxidase) solution (diluted 500-fold in 1× Strep-Diluent) was added and the reactions were allowed to incubate for 30 minutes at ambient temperature. The liquid was removed and, after washing the wells four times with PBS (200 ul), 50 microliters each of PeroxyGlo A and B (Chemiluminescent Horseradish Peroxidase substrates) are added and the resulting chemiluminescence quantified on the SpectraMax M5 plate reader.

[1] = system: HCT-116 human colorectal carcinoma cells; assay: Cell proliferation assay, Alamar Blue, HCT-116; format: cell-based;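 note: cells exposed to compound for about 4 days, then Alamar Blue added and fluorescence read after about 4 h, medium-only wells as control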
[2] = HCT-116, Table 16, first HCT-116 column
[3] = HCT-116, Table 16, second HCT-116 column

PARP, sequence (P09874 whole entry): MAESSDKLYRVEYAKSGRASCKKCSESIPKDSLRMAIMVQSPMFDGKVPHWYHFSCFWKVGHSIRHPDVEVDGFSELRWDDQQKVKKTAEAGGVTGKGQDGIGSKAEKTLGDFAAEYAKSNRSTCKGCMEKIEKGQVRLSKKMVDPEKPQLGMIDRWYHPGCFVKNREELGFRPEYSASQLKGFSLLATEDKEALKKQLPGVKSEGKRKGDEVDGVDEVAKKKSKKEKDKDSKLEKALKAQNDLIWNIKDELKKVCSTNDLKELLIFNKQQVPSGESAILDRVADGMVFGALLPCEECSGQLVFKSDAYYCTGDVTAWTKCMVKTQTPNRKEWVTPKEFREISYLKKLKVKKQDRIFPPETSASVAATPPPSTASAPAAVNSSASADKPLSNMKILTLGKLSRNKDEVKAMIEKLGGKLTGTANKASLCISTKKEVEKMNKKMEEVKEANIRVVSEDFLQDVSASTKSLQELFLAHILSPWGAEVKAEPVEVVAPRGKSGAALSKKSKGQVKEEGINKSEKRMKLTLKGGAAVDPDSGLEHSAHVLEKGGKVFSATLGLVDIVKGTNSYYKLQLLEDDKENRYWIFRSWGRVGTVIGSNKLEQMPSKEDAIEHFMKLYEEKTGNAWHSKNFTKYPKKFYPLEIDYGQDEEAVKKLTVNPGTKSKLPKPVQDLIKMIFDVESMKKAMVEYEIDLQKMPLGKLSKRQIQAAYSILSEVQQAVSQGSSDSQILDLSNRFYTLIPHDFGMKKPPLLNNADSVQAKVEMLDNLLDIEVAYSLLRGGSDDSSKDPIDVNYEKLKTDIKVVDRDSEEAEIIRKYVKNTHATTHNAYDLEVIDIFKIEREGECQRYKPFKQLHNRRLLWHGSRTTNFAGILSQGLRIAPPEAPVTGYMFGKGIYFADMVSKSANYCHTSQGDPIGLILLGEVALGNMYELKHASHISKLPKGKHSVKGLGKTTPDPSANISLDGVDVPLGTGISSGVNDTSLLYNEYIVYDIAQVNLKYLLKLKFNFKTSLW

Row | SMILES | inhibition at 1 µM (PARP) [%] | IC50 [1, 2] [µM] | other results
1 | O=C(O)c1ccc2c(c1)[nH]c(=O)c1ccsc12 | 58 | – | inhibition at 20 µM (PARP): 90%; IC50 (PARP): 1000 nM
2 | O=C(O)c1ccc2c(c1)[nH]c(=O)c1cc(Br)sc12 | 39 | – | inhibition at 20 µM (PARP): 84%
3 | O=C(O)CCNC(=O)c1ccc2c(c1)[nH]c(=O)c1ccsc12 | 35 | – | inhibition at 20 µM (PARP): 95%
4 | O=C(Nc1nccs1)c1ccc2c(c1)[nH]c(=O)c1ccsc12 | 0 | – | inhibition at 20 µM (PARP): 52%
5 | O=C(Nc1ccc(Cl)cc1)c1ccc2c(c1)[nH]c(=O)c1ccsc12 | 0 | – | inhibition at 20 µM (PARP): 55%
6 | O=C(NCCc1cnc[nH]1)c1ccc2c(c1)[nH]c(=O)c1ccsc12 | 83 | – | inhibition at 20 µM (PARP): 97%; IC50 (PARP): 200 nM
7 | O=C(NCCN1CCOCC1)c1ccc2c(c1)[nH]c(=O)c1ccsc12 | 77 | – | inhibition at 20 µM (PARP): 96%; IC50 (PARP): 500 nM
8 | CCCNC(=O)c1ccc2c(c1)[nH]c(=O)c1ccsc12 | 65 | – | inhibition at 20 µM (PARP): 88%; IC50 (PARP): 1000 nM
9 | COc1ccc(CCNC(=O)c2ccc3c(c2)[nH]c(=O)c2ccsc23)cc1OC | 15 | – | inhibition at 20 µM (PARP): 67%
10 | CC(=O)N1CCN(C(=O)c2ccc3c(c2)[nH]c(=O)c2ccsc23)CC1 | 71 | – | inhibition at 20 µM (PARP): 94%; IC50 (PARP): 300 nM
11 | COC(=O)c1ccccc1NC(=O)c1ccc2c(c1)[nH]c(=O)c1ccsc12 | 24 | – | –
12 | N#Cc1ccc2c(c1)[nH]c(=O)c1ccsc12 | 51 | – | IC50 (PARP): 500 nM
13 | O=c1[nH]c2cc(-c3nn[nH]n3)ccc2c2sccc12 | 39 | – | –
14 | CN(C)CCn1c(=O)c2ccsc2c2ccc(C(=O)O)cc21 | 5 | – | –
15 | O=C(O)c1ccc2c(c1)nc(NCCO)c1ccsc12 | – | > 10 | –
16 | O=C(O)c1ccc2c(c1)nc(NCc1ccccn1)c1ccsc12 | – | > 10 | –
17 | O=C(O)c1ccc2c(c1)nc(NCc1cccnc1)c1ccsc12 | – | > 10 | –
18 | O=C(O)c1ccc2c(c1)nc(NCCN1CCOCC1)c1ccsc12 | – | > 10 | –
19 | COc1ccccc1Nc1nc2cc(C(=O)O)ccc2c2sccc12 | – | > 10 | –
20 | O=C(O)c1ccc2c(c1)nc(Nc1cccc(O)c1)c1ccsc12 | – | > 10 | –
21 | COc1ccc(Nc2nc3cc(C(=O)O)ccc3c3sccc23)c(OC)c1 | – | > 10 | –
22 | O=C(O)c1ccc2c(c1)nc(NCCN1CCCC1)c1ccsc12 | – | > 10 | –

Row | SMILES | inhibition at 1 µM (PARP) [%] | IC50 [1, 2] [µM] | other results
23 | Clc1nc2ccccc2c2sccc12 | – | > 10 | –
24 | N#Cc1ccc2c(c1)nc(Cl)c1ccsc12 | – | > 10 | –
25 | c1ccc(Nc2nc3ccccc3c3sccc23)cc1 | – | > 10 | –
26 | CN(C)CCNc1nc2ccccc2c2sccc12 | – | 2 | –
27 | O=C(O)CNc1nc2cc(C(=O)O)ccc2c2sccc12 | – | > 10 | –
28 | O=C(O)c1ccc2c(c1)nc(Nc1nc3ccccc3[nH]1)c1ccsc12 | – | > 10 | –
29 | O=C(O)c1ccc2c(c1)nc(N1CCCC1)c1ccsc12 | – | > 10 | –
30 | CN(c1ccccc1)c1nc2cc(C(=O)O)ccc2c2sccc12 | – | > 10 | –
31 | O=C(O)c1ccc2c(c1)nc(Nc1ccc(F)cc1)c1ccsc12 | – | > 10 | –
32 | Cc1ccccc1Nc1nc2cc(C(=O)O)ccc2c2sccc12 | – | > 10 | –
33 | O=C(O)c1ccc2c(c1)nc(Nc1ccc(Cl)cc1)c1ccsc12 | – | > 10 | –
34 | O=C(O)c1ccc2c(c1)nc(Nc1ccc(F)cc1F)c1ccsc12 | – | > 10 | –
35 | O=C(O)c1ccc2c(c1)nc(NC1CC1)c1ccsc12 | – | > 10 | –
36 | O=C(O)c1ccc2c(c1)nc(N1CCc3ccccc31)c1ccsc12 | – | > 10 | –
37 | COc1ccc(Nc2nc3cc(C(=O)O)ccc3c3sccc23)cc1Cl | – | > 10 | –
38 | O=C(O)c1ccc2c(c1)nc(Nc1ccccc1O)c1ccsc12 | – | > 10 | –
39 | COc1ccc(OC)c(Nc2nc3cc(C(=O)O)ccc3c3sccc23)c1 | – | > 10 | –
40 | COC(=O)c1ccc2c(c1)nc(Nc1ccccc1)c1ccsc12 | – | > 10 | –
41 | CS(=O)(=O)NC(=O)c1ccc2c(c1)nc(Nc1ccccc1)c1ccsc12 | – | > 10 | –
42 | CN(C)CCNc1nc2cc(-c3nnn[nH]3)ccc2c2sccc12 | – | > 10 | –
43 | N#Cc1ccc2c(c1)nc(Nc1ccccc1)c1ccsc12 | – | > 10 | –
44 | NC(=O)c1ccc2c(c1)nc(Nc1ccccc1)c1ccsc12 | – | 9 | –

Row | SMILES | inhibition at 1 µM (PARP) [%] | IC50 [1, 2] [µM] | other results
45 | O=c1[nH]c(-c2ccc3c(c2)nc(Nc2ccccc2)c2ccsc23)no1 | – | > 10 | –
46 | Fc1ccc(Nc2nc3cc(-c4nnn[nH]4)ccc3c3sccc23)cc1Cl | – | > 10 | –
47 | COc1cccc(Nc2nc3cc(-c4nnn[nH]4)ccc3c3sccc23)c1 | – | > 10 | –
48 | Clc1ccc(Nc2nc3cc(-c4nnn[nH]4)ccc3c3sccc23)cc1 | – | > 10 | –
49 | COc1ccc(Nc2nc3cc(-c4nnn[nH]4)ccc3c3sccc23)cc1Cl | – | > 10 | –
50 | CC(C)Oc1cccc(Nc2nc3cc(-c4nnn[nH]4)ccc3c3sccc23)c1 | – | – | IC50 [1, 3]: > 10 µM
51 | COc1cc(Nc2nc3cc(-c4nnn[nH]4)ccc3c3sccc23)ccc1F | – | – | IC50 [1, 3]: > 10 µM
52 | CCOc1cccc(Nc2nc3cc(-c4nnn[nH]4)ccc3c3sccc23)c1 | – | – | IC50 [1, 3]: > 10 µM
53 | CCc1cccc(Nc2nc3cc(-c4nnn[nH]4)ccc3c3sccc23)c1 | – | – | IC50 [1, 3]: > 10 µM
54 | c1cc2c(Nc3ccc4c(c3)OCCO4)nc3cc(-c4nnn[nH]4)ccc3c2s1 | – | – | IC50 [1, 3]: > 10 µM
55 | COC(=O)c1ccc2c(c1)nc(Nc1ccccc1)c1ncsc12 | – | – | IC50 [1, 3]: > 10 µM
56 | O=C(O)c1ccc2c(c1)nc(Nc1cccc(Oc3ccccc3)c1)c1ccsc12 | – | – | IC50 [1, 3]: > 10 µM
57 | CCCNC(=O)c1cccc(Nc2nc3cc(C(=O)O)ccc3c3sccc23)c1 | – | – | IC50 [1, 3]: > 10 µM
58 | O=C(O)c1ccc2c(c1)nc(Nc1cccc(C(=O)N3CCOCC3)c1)c1ccsc12 | – | – | IC50 [1, 3]: > 10 µM
59 | O=C(O)CNC(=O)c1cccc(Nc2nc3cc(C(=O)O)ccc3c3sccc23)c1 | – | – | IC50 [1, 3]: > 10 µM
60 | CN(C)CCNC(=O)c1cccc(Nc2nc3cc(C(=O)O)ccc3c3sccc23)c1 | – | – | IC50 [1, 3]: > 10 µM
61 | O=C(O)c1ccc2c(c1)nc(Nc1cccc(C(=O)NC3CC3)c1)c1ccsc12 | – | – | IC50 [1, 3]: > 10 µM
62 | CN(C)CCNc1nc2cc(-c3nnn[nH]3)ccc2c2cnccc12 | – | – | IC50 ([1]; HCT-116, Table 18): > 10 µM
63 | CN(C)CCNc1nc2cc(C#N)ccc2c2cnccc12 | – | – | IC50 ([1]; HCT-116, Table 18): 1.6 µM
64 | CNc1ncc2c(n1)c(NC1CC1)nc1cc(C(=O)O)ccc12 | – | – | IC50 ([1]; HCT-116, Table 18): > 10 µM
65 | COC(=O)c1ccc2c(c1)nc(Cl)c1ccsc12 [drawing 842] | – | > 10 | –
66 | C#Cc1cccc(Nc2nc3cc(C(=O)O)ccc3c3sccc23)c1 [drawing 967] | – | – | IC50 [1, 3]: > 10 µM

Second part, led by results:

Row | inhibition at 1 µM (PARP) [%] | IC50 [1, 2] [µM] | SMILES | other results
67 | 27 | – | COC(=O)c1ccc2c(c1)[nH]c(=O)c1ccsc12 | inhibition at 20 µM (PARP): 84%
68 | 40 | – | CC(C)(C)OC(=O)CCNC(=O)c1ccc2c(c1)[nH]c(=O)c1ccsc12 | inhibition at 20 µM (PARP): 82%
69 | 0 | – | O=C(Nc1ccccc1)c1ccc2c(c1)[nH]c(=O)c1ccsc12 | inhibition at 20 µM (PARP): 22%
70 | 47 | – | COC(=O)CNC(=O)c1ccc2c(c1)[nH]c(=O)c1ccsc12 | inhibition at 20 µM (PARP): 93%
71 | 31 | – | O=C(O)CNC(=O)c1ccc2c(c1)[nH]c(=O)c1ccsc12 | inhibition at 20 µM (PARP): 97%
72 | 0 | – | COc1ccc(NC(=O)c2ccc3c(c2)[nH]c(=O)c2ccsc23)c(OC)c1 | inhibition at 20 µM (PARP): 32%
73 | 0 | – | O=C(Nc1ccc(N2CCOCC2)cc1)c1ccc2c(c1)[nH]c(=O)c1ccsc12 | inhibition at 20 µM (PARP): 37%
74 | 0 | – | O=C(Nc1cccnc1)c1ccc2c(c1)[nH]c(=O)c1ccsc12 | inhibition at 20 µM (PARP): 62%
75 | 0 | – | COc1ccccc1NC(=O)c1ccc2c(c1)[nH]c(=O)c1ccsc12 | inhibition at 20 µM (PARP): 24%
76 | 82 | – | O=C(c1ccc2c(c1)[nH]c(=O)c1ccsc12)N1CCOCC1 | inhibition at 20 µM (PARP): 95%; IC50 (PARP): 400 nM
77 | 55 | – | O=C(NCCc1ccccn1)c1ccc2c(c1)[nH]c(=O)c1ccsc12 | inhibition at 20 µM (PARP): 83%; IC50 (PARP): 1000 nM
78 | 65 | – | COCCNC(=O)c1ccc2c(c1)[nH]c(=O)c1ccsc12 | inhibition at 20 µM (PARP): 93%; IC50 (PARP): 400 nM
79 | 89 | – | CN(C)C(=O)c1ccc2c(c1)[nH]c(=O)c1ccsc12 | inhibition at 20 µM (PARP): 97%; IC50 (PARP): 200 nM
80 | 69 | – | O=C(NC1CC1)c1ccc2c(c1)[nH]c(=O)c1ccsc12 | inhibition at 20 µM (PARP): 90%; IC50 (PARP): 500 nM
81 | 36 | – | O=C(NCc1ccccc1)c1ccc2c(c1)[nH]c(=O)c1ccsc12 | –
82 | 40 | – | COC(=O)c1ccc2c3sccc3c(=O)n(CCCO)c2c1 | –
83 | – | > 10 | O=C(O)c1ccc2c(c1)nc(OCCCO)c1ccsc12 | –
84 | – | > 10 | O=C(NCCCO)c1ccc2c(c1)nc(NCCCO)c1ccsc12 | –
85 | – | > 10 | O=C(O)c1ccc2c(c1)nc(NCCCO)c1ccsc12 | –
86 | – | > 10 | O=C(O)c1ccc2c(c1)nc(NCc1ccncc1)c1ccsc12 | –
87 | – | > 10 | O=C(O)c1ccc2c(c1)nc(N1CCOCC1)c1ccsc12 | –
88 | – | > 10 | O=C(O)c1ccc2c(c1)nc(NCCc1ccccc1)c1ccsc12 | –
89 | – | > 10 | CCN(c1ccccc1)c1nc2cc(C(=O)O)ccc2c2sccc12 | –
90 | – | > 10 | O=C(O)c1ccc2c(c1)nc(Nc1ccc(N3CCOCC3)cc1)c1ccsc12 | –
91 | – | > 10 | Fc1ccc(Nc2nc3cc(-c4nnn[nH]4)ccc3c3sccc23)cc1 | –

From patent US9062043B2, “Fused tricyclic compounds as serine-threonine protein kinase and PARP modulators” (SENHWA BIOSCIENCES, INC., priority 2006, dated 2015)
